PubChem BioAssay (NCI)
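Following 48 hours of exposure in 96-well plates, responses at five concentrations were used to interpolate endpoints linearly. The concentration for full growth arrest is given as TGI.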

Assays:
Test in all cases: NCI-60 cell line screen, 48 h
NCI-H522 lung = test system: NCI-H522 lung
HOP-18 NSCLC = test system: HOP-18 NSCLC
SN12C renal = test system: SN12C renal
786-0 renal = test system: 786-0 renal
MALME-3M melanoma = test system: MALME-3M melanoma
XF 498 CNS = test system: XF 498 CNS
OVCAR-4 ovarian = test system: OVCAR-4 ovarian
M19-MEL melanoma = test system: M19-MEL melanoma
UACC-62 melanoma = test system: UACC-62 melanoma
K-562 leukemia = test system: K-562 leukemia
HOP-62 NSCLC = test system: HOP-62 NSCLC
SW-620 colon = test system: SW-620 colon
UO-31 renal = test system: UO-31 renal
RPMI-8226 leukemia = test system: RPMI-8226 leukemia
SNB-19 CNS = test system: SNB-19 CNS
NCI-H23 lung = test system: NCI-H23 lung
SF-268 CNS = test system: SF-268 CNS
SNB-78 CNS = test system: SNB-78 CNS
RXF-631 renal = test system: RXF-631 renal
SK-OV-3 ovarian = test system: SK-OV-3 ovarian
DLD-1 colon = test system: DLD-1 colon
SK-MEL-2 melanoma = test system: SK-MEL-2 melanoma
IGROV1 ovarian = test system: IGROV1 ovarian
DMS 114 small cell lung = test system: DMS 114 small cell lung
SF-539 CNS = test system: SF-539 CNS
OVCAR-8 ovarian = test system: OVCAR-8 ovarian
HL-60(TB) leukemia = test system: HL-60(TB) leukemia
MOLT-4 leukemia = test system: MOLT-4 leukemia
NCI-H460 lung = test system: NCI-H460 lung
NCI-H226 lung = test system: NCI-H226 lung
LXFL 529 NSCLC = test system: LXFL 529 NSCLC
KM12 colon = test system: KM12 colon
EKVX NSCLC = test system: EKVX NSCLC
SR leukemia = test system: SR leukemia
HT29 colon = test system: HT29 colon
SK-MEL-5 melanoma = test system: SK-MEL-5 melanoma
LOX IMVI melanoma = test system: LOX IMVI melanoma
HOP-92 NSCLC = test system: HOP-92 NSCLC
HCC-2998 colon = test system: HCC-2998 colon
OVCAR-5 ovarian = test system: OVCAR-5 ovarian
ACHN renal = test system: ACHN renal
HCT-116 colon = test system: HCT-116 colon
CCRF-CEM leukemia = test system: CCRF-CEM leukemia
SF-295 CNS = test system: SF-295 CNS
RXF 393 renal = test system: RXF 393 renal
CAKI-1 renal = test system: CAKI-1 renal
UACC-257 melanoma = test system: UACC-257 melanoma
OVCAR-3 ovarian = test system: OVCAR-3 ovarian
A549 NSCLC = test system: A549 NSCLC
TK-10 renal = test system: TK-10 renal
U251 CNS = test system: U251 CNS
M14 melanoma = test system: M14 melanoma
A498 renal = test system: A498 renal
KM20L2 colon = test system: KM20L2 colon
COLO 205 colon = test system: COLO 205 colon
HCT-15 colon = test system: HCT-15 colon
SK-MEL-28 melanoma = test system: SK-MEL-28 melanoma
SNB-75 CNS = test system: SNB-75 CNS

SMILES: CC(=O)/C(=C\c1ccccc1)C(=O)Nc1ccccc1
- TGI (NCI-H522 lung): > 100 µM
- TGI (HOP-18 NSCLC): > 100 µM
- TGI (SN12C renal): > 100 µM
- TGI (786-0 renal): > 100 µM
- TGI (MALME-3M melanoma): > 100 µM
- TGI (XF 498 CNS): > 100 µM
- TGI (OVCAR-4 ovarian): > 100 µM
- TGI (M19-MEL melanoma): > 100 µM
- TGI (UACC-62 melanoma): > 100 µM
- TGI (K-562 leukemia): > 100 µM
- TGI (HOP-62 NSCLC): > 100 µM
- TGI (SW-620 colon): > 100 µM
- TGI (UO-31 renal): > 100 µM
- TGI (RPMI-8226 leukemia): > 100 µM
- TGI (SNB-19 CNS): > 100 µM
- TGI (NCI-H23 lung): > 100 µM
- TGI (SF-268 CNS): > 100 µM
- TGI (SNB-78 CNS): > 100 µM
- TGI (RXF-631 renal): > 100 µM
- TGI (SK-OV-3 ovarian): > 100 µM
- TGI (DLD-1 colon): > 100 µM
- TGI (SK-MEL-2 melanoma): > 100 µM
- TGI (IGROV1 ovarian): > 100 µM
- TGI (DMS 114 small cell lung): > 100 µM
- TGI (SF-539 CNS): > 100 µM
- TGI (OVCAR-8 ovarian): > 100 µM
- TGI (HL-60(TB) leukemia): > 100 µM
- TGI (MOLT-4 leukemia): > 100 µM
- TGI (NCI-H460 lung): > 100 µM
- TGI (NCI-H226 lung): > 100 µM
- TGI (LXFL 529 NSCLC): > 100 µM
- TGI (KM12 colon): > 100 µM
- TGI (EKVX NSCLC): > 100 µM
- TGI (SR leukemia): > 100 µM
- TGI (HT29 colon): > 100 µM
- TGI (SK-MEL-5 melanoma): > 100 µM
- TGI (LOX IMVI melanoma): > 100 µM
- TGI (HOP-92 NSCLC): > 100 µM
- TGI (HCC-2998 colon): > 100 µM
- TGI (OVCAR-5 ovarian): > 100 µM
- TGI (ACHN renal): > 100 µM
- TGI (HCT-116 colon): > 100 µM
- TGI (CCRF-CEM leukemia): > 100 µM
- TGI (SF-295 CNS): > 100 µM
- TGI (RXF 393 renal): > 100 µM
- TGI (CAKI-1 renal): > 100 µM
- TGI (UACC-257 melanoma): > 100 µM
- TGI (OVCAR-3 ovarian): > 100 µM
- TGI (A549 NSCLC): > 100 µM
- TGI (TK-10 renal): > 100 µM
- TGI (U251 CNS): > 100 µM
- TGI (M14 melanoma): > 100 µM

SMILES: COC(=O)[C@]1(C)CCC[C@]2(C)C3CC4OOC3(C=C4C(C)(C)O)CCC21 (stereo partly specified)
- TGI (NCI-H522 lung): 47.3 µM
- TGI (SN12C renal): > 100 µM
- TGI (786-0 renal): > 100 µM
- TGI (MALME-3M melanoma): > 100 µM
- TGI (XF 498 CNS): 46.7 µM
- TGI (OVCAR-4 ovarian): > 100 µM
- TGI (M19-MEL melanoma): > 100 µM
- TGI (UACC-62 melanoma): > 100 µM
- TGI (K-562 leukemia): 64.3 µM
- TGI (HOP-62 NSCLC): > 100 µM
- TGI (SW-620 colon): > 100 µM
- TGI (RPMI-8226 leukemia): 37.3 µM
- TGI (SNB-19 CNS): > 100 µM
- TGI (NCI-H23 lung): > 100 µM
- TGI (SF-268 CNS): > 100 µM
- TGI (SNB-78 CNS): > 100 µM
- TGI (RXF-631 renal): > 100 µM
- TGI (SK-OV-3 ovarian): > 100 µM
- TGI (DLD-1 colon): > 100 µM
- TGI (SK-MEL-2 melanoma): > 100 µM
- TGI (IGROV1 ovarian): > 100 µM
- TGI (DMS 114 small cell lung): > 100 µM
- TGI (SF-539 CNS): > 100 µM
- TGI (OVCAR-8 ovarian): > 100 µM
- TGI (HL-60(TB) leukemia): 32 µM
- TGI (MOLT-4 leukemia): 67.3 µM
- TGI (NCI-H460 lung): > 100 µM
- TGI (A498 renal): > 100 µM
- TGI (NCI-H226 lung): > 100 µM
- TGI (LXFL 529 NSCLC): 65.6 µM
- TGI (KM12 colon): > 100 µM
- TGI (KM20L2 colon): > 100 µM
- TGI (EKVX NSCLC): > 100 µM
- TGI (HT29 colon): 56.9 µM
- TGI (SK-MEL-5 melanoma): > 100 µM
- TGI (LOX IMVI melanoma): > 100 µM
- TGI (OVCAR-5 ovarian): > 100 µM
- TGI (ACHN renal): > 100 µM
- TGI (HCT-116 colon): > 100 µM
- TGI (CCRF-CEM leukemia): 57.8 µM
- TGI (SF-295 CNS): > 100 µM
- TGI (CAKI-1 renal): > 100 µM
- TGI (COLO 205 colon): > 100 µM
- TGI (UACC-257 melanoma): > 100 µM
- TGI (HCT-15 colon): > 100 µM
- TGI (OVCAR-3 ovarian): > 100 µM
- TGI (A549 NSCLC): > 100 µM
- TGI (TK-10 renal): > 100 µM
- TGI (U251 CNS): > 100 µM
- TGI (M14 melanoma): > 100 µM

SMILES: O=C1C(c2ccccc2)=[N+]([O-])c2ccc(Cl)cc21
- TGI (NCI-H522 lung): 31 µM
- TGI (HOP-18 NSCLC): > 100 µM
- TGI (SN12C renal): 67.4 µM
- TGI (786-0 renal): > 100 µM
- TGI (MALME-3M melanoma): 61.8 µM
- TGI (XF 498 CNS): 35.8 µM
- TGI (M19-MEL melanoma): 42.1 µM
- TGI (SK-MEL-28 melanoma): 48.8 µM
- TGI (UACC-62 melanoma): 35 µM
- TGI (K-562 leukemia): > 100 µM
- TGI (HOP-62 NSCLC): > 100 µM
- TGI (SW-620 colon): 93.3 µM
- TGI (UO-31 renal): > 100 µM
- TGI (RPMI-8226 leukemia): > 100 µM
- TGI (SNB-19 CNS): > 100 µM
- TGI (NCI-H23 lung): > 100 µM
- TGI (SF-268 CNS): 62.4 µM
- TGI (RXF-631 renal): 86.2 µM
- TGI (SK-OV-3 ovarian): > 100 µM
- TGI (DLD-1 colon): 51.3 µM
- TGI (SK-MEL-2 melanoma): > 100 µM
- TGI (IGROV1 ovarian): 57 µM
- TGI (DMS 114 small cell lung): 25.6 µM
- TGI (SF-539 CNS): 38.5 µM
- TGI (OVCAR-8 ovarian): 30.5 µM
- TGI (HL-60(TB) leukemia): 38.5 µM
- TGI (MOLT-4 leukemia): 81.6 µM
- TGI (NCI-H460 lung): > 100 µM
- TGI (A498 renal): > 100 µM
- TGI (NCI-H226 lung): 49.9 µM
- TGI (LXFL 529 NSCLC): 34.9 µM
- TGI (KM12 colon): > 100 µM
- TGI (KM20L2 colon): > 100 µM
- TGI (EKVX NSCLC): 47.3 µM
- TGI (SR leukemia): > 100 µM
- TGI (HT29 colon): 56.1 µM
- TGI (SK-MEL-5 melanoma): 35.2 µM
- TGI (LOX IMVI melanoma): 32.7 µM
- TGI (HOP-92 NSCLC): 0.096 µM
- TGI (OVCAR-5 ovarian): 61.5 µM
- TGI (ACHN renal): 56.7 µM
- TGI (HCT-116 colon): 34.7 µM
- TGI (CCRF-CEM leukemia): > 100 µM
- TGI (SF-295 CNS): > 100 µM
- TGI (RXF 393 renal): 29.1 µM
- TGI (COLO 205 colon): 28.9 µM
- TGI (UACC-257 melanoma): 46.8 µM
- TGI (HCT-15 colon): 64.2 µM
- TGI (OVCAR-3 ovarian): 59.9 µM
- TGI (SNB-75 CNS): > 100 µM
- TGI (A549 NSCLC): > 100 µM
- TGI (TK-10 renal): 77.9 µM
- TGI (U251 CNS): 65.1 µM
- TGI (M14 melanoma): > 100 µM
